Assay results taken from US20190275087A1, “EXPANSION AND DIFFERENTIATION OF STEM CELLS” (Allergan Pharmaceuticals International Limited, priority 2018, published 2019).

Tests used:
integrins on MSCs = experiment: cell-based or functional assay
MSCs [1] = experiment: MSC proliferation with integrin, FGFR, FAK and PKB/AKT inhibitors; assay type: cell-based, Human; conditions: for reduction of tropoelastin-mediated proliferation: downstream signaling inhibitor, 7 days
Experimental: (§1) Sub-confluent flasks of MSCs were treated with 0.05% (v/v) trypsin-EDTA (Sigma-Aldrich®) at 37° C. for 5 min to lift off adherent cells from the culture vessel. Trypsin was neutralized with two volumes of serum-containing growth media. Cells were centrifuged at 270 g for 5 min and resuspended in the required media. Cells were seeded at a density of 5000 cells/cm^2 on bare or protein-coated tissue culture plastic wells, in normal or supplemented media. Media was changed every 2 days. After specific time points, cells were fixed with 3% (v/v) formaldehyde at room temperature for 20 min, washed with PBS, then stained with 0.1% (w/v) crystal violet in 0.2 M MES buffer for 1 hour. Excess stain was washed off four times with reverse osmosis water. The retained stain was solubilized with 10% (v/v) acetic acid and sample absorbance values indicative of cell abundance were read at 570 nm. Sample absorbance values were subtracted by baseline values (corresponding to cell numbers in serum-free media, or cell numbers on day 1 post-seeding) and expressed as a fraction of the highest absorbance among all samples on day 7 post-seeding.
To block specific integrin activity, up to 20 μg/mL of anti-αv or anti-αvβ3 integrin antibodies (Abcam®), or up to 1:250 dilution of anti-αvβ5 integrin antibody (Abcam®) was added to the media during MSC spreading or proliferation assays. […] An anti-β8 integrin (5 μg/mL) (Abcam®) or a non-specific mouse IgG (5 μg/mL) (Sigma-Aldrich®) were also included as negative antibody controls. […] The integrin and FGFR inhibitors were replenished during every media change.

MSCs [2] = experiment: Flow cytometry of MSC surface marker expression; assay type: cell-based, Human; conditions: bare TCP, media with only this growth factor, 7 days post-seeding
Experimental: MSCs cultured for 5 or 7 days in various media formulations and on bare or protein-coated tissue culture wells were trypsinised and pelleted. The cell pellets were washed with 0.22 μm filtered FACS buffer (5% v/v FBS in PBS) and re-centrifuged at 270 g for 5 min. The cells were resuspended in FACS buffer to a concentration of 100,000 cells in 100 μL total volume, and probed for MSC marker expression using the Human Mesenchymal Stem Cell Verification Flow Kit (R&D Systems®). Isotype and unstained control samples were prepared using MSCs cultured in standard growth media on tissue culture plastic. Cells were analyzed using a BD™ Biosciences LSR II Flow Cytometer System. Singlet cells were determined by their forward scatter-to-side scatter and scatter height-to-width ratios, while viable cells were identified by exclusion of 1:20 propidium iodide. Only singlet, viable cells were analyzed for marker expression.

MSCs [3] = experiment: MSC attachment to substrate-bound tropoelastin (EDTA inhibition, cation add-back); assay type: cell-based, Human; conditions: 5 mM
Experimental: MSCs were seeded at a density of 1.5×10^5 cells/cm^2 on tropoelastin-coated wells in serum-free α-MEM containing 0-9 mM ethylenediaminetetraacetic acid (EDTA) (Sigma-Aldrich®). The cells were incubated for 1 hour at 37° C., then washed with PBS to remove unbound cells. Bound cells were fixed, stained and measured for absorbance at 570 nm as described for the proliferation assays. The percentage of cell attachment was determined relative to a set of standards with known cell numbers.
MSCs were washed with cation-free PBS, centrifuged at 270 g for 5 min, and resuspended in cation-free PBS. The cells were seeded at a density of 1.5×10^5 cells/cm^2 on tropoelastin-coated wells in the presence of 0-0.5 mM cation (Mg^2+, Ca^2+ or Mn^2+) and incubated for 45 min at 37° C. Bound cells were fixed and stained, and cell attachment was quantified as previously described.

[4] = system: Human bone marrow-derived MSCs; experiment: MSC proliferation (crystal violet cell abundance); assay type: cell-based
Experimental: Human bone marrow-derived MSCs obtained from American Type Culture Collection (ATCC) were cultured in normal media, which consists of Alpha-Minimum Essential Medium (α-MEM) (Lonza) with 10% (v/v) FBS (Life Technologies) and 2.4 mM L-glutamine (Lonza), at 37° C. in a humidified normoxic incubator up to a maximum of 10 population doublings. Where indicated, the normal media was supplemented with 15 ng/mL IGF-1 (Life Technologies) and/or […] bFGF (Life Technologies), equivalent to the growth factor concentrations in the ATCC-recommended media. Cells were passaged once they reach 70-80% confluence.
Where indicated, tissue culture plastic wells were coated with 20 μg/mL recombinant human tropoelastin (Elastagen) or 2 μg/mL fibronectin (Sigma-Aldrich®) in PBS (10 mM phosphate, 150 mM NaCl, pH 7.4) at 4° C. overnight. The protein solution was removed, and wells were washed three times with PBS to remove unbound protein prior to cell seeding.
[…] To prevent protein adhesion on the tissue culture substrate, wells were pre-incubated with normal media for 5 hours to enable surface blocking by serum proteins prior to cell seeding in supplemented media.
as §1

MSCs [5] = experiment: MSC spreading with integrin-blocking antibodies; assay type: cell-based, Human; conditions: no antibody
Experimental: Cells were fixed and visualized by phase contrast microscopy with a Zeiss Axio Vert.A1 microscope. Images were taken on an AxioCam ICml monochrome camera. […] Cell spreading was quantified by counting the percentage of spread cells in each field of view. Three fields of view were obtained for each sample replicate.
To block specific integrin activity, up to 20 μg/mL of anti-αv or anti-αvβ3 integrin antibodies (Abcam®), or up to 1:250 dilution of anti-αvβ5 integrin antibody (Abcam®) was added to the media during MSC spreading or proliferation assays. Optimal inhibitory concentrations were selected for the anti-αv (5 μg/mL), anti-αvβ3 (5 μg/mL), and anti-αvβ5 (1:500 dilution) integrin antibodies. An anti-β8 integrin (5 μg/mL) (Abcam®) or a non-specific mouse IgG (5 μg/mL) (Sigma-Aldrich®) were also included as negative antibody controls. To block FGFR activity, up to 20 μM of the SU-5402 FGFR inhibitor (Sigma-Aldrich®) was added to the media during MSC proliferation. The integrin and FGFR inhibitors were replenished during every media change.

Chain of recombinant human tropoelastin (Elastagen) (P15502 other isoform, or with tags, fused parts or gaps limits assumed): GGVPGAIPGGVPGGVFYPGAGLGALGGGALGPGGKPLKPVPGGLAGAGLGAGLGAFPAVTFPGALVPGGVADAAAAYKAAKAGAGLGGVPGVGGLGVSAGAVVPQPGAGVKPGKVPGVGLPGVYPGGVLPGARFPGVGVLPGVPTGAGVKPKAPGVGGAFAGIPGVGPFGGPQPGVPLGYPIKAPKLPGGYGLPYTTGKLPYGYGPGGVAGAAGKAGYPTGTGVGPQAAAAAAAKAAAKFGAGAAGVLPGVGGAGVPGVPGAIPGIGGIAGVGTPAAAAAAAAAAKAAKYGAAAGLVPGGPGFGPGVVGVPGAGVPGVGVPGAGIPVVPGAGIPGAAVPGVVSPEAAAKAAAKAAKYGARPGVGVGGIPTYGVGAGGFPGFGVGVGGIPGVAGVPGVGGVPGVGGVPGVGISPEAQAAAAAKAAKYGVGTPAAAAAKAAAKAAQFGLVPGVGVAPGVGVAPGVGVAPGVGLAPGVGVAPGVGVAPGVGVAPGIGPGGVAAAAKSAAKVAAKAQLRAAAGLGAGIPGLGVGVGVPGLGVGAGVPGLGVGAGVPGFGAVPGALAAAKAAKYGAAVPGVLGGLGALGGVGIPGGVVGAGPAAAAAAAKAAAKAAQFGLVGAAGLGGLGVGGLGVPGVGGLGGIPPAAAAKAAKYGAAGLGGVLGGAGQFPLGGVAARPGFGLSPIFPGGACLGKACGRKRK

## recombinant human tropoelastin (Elastagen) (from UniProt P15502 27-724) (ligand)
Integrins on MSCs
  MSC adhesion to tropoelastin after addition of up to 0.5 mM Ca2+: 13.7%
  MSC adhesion to tropoelastin after addition of up to 0.5 mM Mg2+: 51.8%
  MSC adhesion to tropoelastin after addition of up to 0.5 mM Mn2+: 76.1%
  MSC adhesion to tropoelastin in a cation-free environment: 20%
  reduction of MSC attachment to substrate-bound tropoelastin in the presence of 5 mM EDTA: 48.9%

## Cc1c[nH]c(/C=C2\C(=O)Nc3ccccc32)c1CCC(=O)O [SU-5402]
MSCs [1]; bFGF-supplemented media, over 7 days
  reduction in overall cell numbers compared to no inhibitor control: ≤ 78.9±0.7%

## bFGF: basic fibroblast growth factor (Life Technologies), media supplement [reference compound]
MSCs [2]
  cells positive for CD105: 92.9±5.9%

## Nc1cc(N)c(N)cc1N [FAK inhibitor 14]
MSCs [1]
  reduction of tropoelastin-mediated proliferation: 50.7±2.0%

## O=C(O)CN(CCN(CC(=O)O)CC(=O)O)CC(=O)O [EDTA, ethylenediaminetetraacetic acid, reference compound]
MSCs [3]
  reduction of MSC binding to tropoelastin: 48.9±0.5%

## IGF-1: insulin-like growth factor-1 (Life Technologies), media supplement [reference compound]
MSCs [2]
  cells expressing CD73: 89.1±0.1%
  cells positive for CD105: 83.9±0.7%
[4]; media supplementation with IGF-1 alone
  MSC numbers compared to normal media: did not increase MSC numbers

## fibronectin [reference compound]
[4]; 20% reduction in serum, after 7 days
  decrease in MSC proliferation on coated surface following serum reduction: 15±0.1%
[4]; 40% decrease in serum, after 7 days
  inhibition of MSC proliferation on coated TCP compared to normal media: 25±1%
[4]; coated on the substratum
  coating concentration that promoted MSC expansion: ≥ 2 µg/mL
[4]; coated surface, until 3 days post-seeding
  serum reduction at which MSC numbers significantly decreased: completely absent
[4]; full serum media
  MSC propagation of fibronectin coating relative to tropoelastin coating: equally promoted
[4]; in solution in media, up to 7 days
  stimulation of MSC proliferation above normal media: did not trigger any proliferative response
MSCs [5]
  cell spreading on fibronectin: 92.5±2.6%

## CCCCCCCCCCCCCCCCCCOP(=O)([O-])OC1CC[N+](C)(C)CC1 [perifosine]
MSCs [1]
  reduction of tropoelastin-mediated proliferation: 21.3±0.5%
